For assay [1], the system named is Aβ 1-42 in the brain of APPswe/PS1dE9 Tg mice. In words: Aβ aggregation inhibitory activity and Aβ production inhibitory activity in mice with oral administration (brain Aβ 1-42 ELISA). In kind it is in vivo. The settings on record: oral 25 or 50 mg/kg bw/day, four weeks (FIG. 3). As for the experimental part:
Pharmacological test example 5: Determination of Aβ aggregation inhibitory activity and Aβ production inhibitory activity in mice with oral administration
To APPswe/PS1dE9 Tg mice (male, 10 to 12 months old, n=8 to 10), the compound of Example 2 was orally administered and the concentration of Aβ in the brain was measured. The administration vehicle was an 80% PEG 400 aqueous solution. The dose volume was 10 mL/kg bw/day and the dose was adjusted to be 25 mg/kg bw/day or 50 mg/kg bw/day. To Vehicle group, 10 mL/kg bw/day of an 80% PEG 400 aqueous solution was administered. Administration was performed with an oral feeding tube (Fuchigami Kikai Company) by gavage and continued for four weeks. After termination of the administration, the mice were sacrificed under pentobarbital anesthesia and the brain was harvested. The brain was homogenized after addition of a 10-fold volume of a phosphoric acid buffer (pH 7.4) and the homogenate was centrifuged at 4° C., 16,000 g for 1 hour. The centrifugal supernatant was used as a soluble protein sample. […] An amount of 100 μL of a reaction stop solution was added to stop the chromogenic reaction and the absorbance was measured at 450 nm with a microplate reader (Bio-Rad). The Aβ concentration was determined from the standard curve produced from the measured values of the standard curve dilution series.
On the technique in general: In an ELISA, binding on a coated surface is turned into a signal by an enzyme label.

The test system of assay [2] is sarcosyl-insoluble tau in the brain of tau N279K Tg mice. In words: Tau aggregation inhibitory activity in mice with oral administration (brain sarcosyl-insoluble tau ELISA). It counts as in vivo. The settings on record: oral 10, 20, or 40 mg/kg bw/day, four weeks (FIG. 4). How it is done: Pharmacological test example 6: Determination of tau aggregation inhibitory activity in mice with oral administration
To tau N279K Tg mice (male, 8 months old, n=8), the compound of Example 2 was orally administered and the tau concentration in the brain was measured. The administration vehicle was an 80% PEG 400 aqueous solution. The dose volume was 10 mL/kg bw/day and the dose was adjusted to be 10, 20, or 40 mg/kg bw/day. To Vehicle group, 10 mL/kg bw/day of an 80% PEG 400 aqueous solution was administered. To Positive control compound group, methylene blue (MB) adjusted to be 40 mg/kg bw/day was administered. Administration was performed with an oral feeding tube (Fuchigami Kikai Company) by gavage and continued for four weeks. After termination of the administration, the mice were sacrificed under pentobarbital anesthesia and the brain was harvested. The brain was homogenized after addition of a 5-fold volume of a high salt buffer (0.8 M NaCl, 1 mM EGTA, 10 mM Tris-HCl, 10% sucrose). […] An amount of 100 μL of a reaction stop solution was added to stop the chromogenic reaction and the absorbance was measured at 450 nm with a microplate reader. The tau concentration was determined from the standard curve produced from the measured values of the standard curve dilution series.

In assay [3] the target is recombinant three-repeat microtubule-binding domain (3R-MBD) of tau protein (Homo sapiens, UniProt P10636). The assay is described as follows: Determination of tau aggregation inhibitory activity (heparin-induced, thioflavin T fluorescence; electron microscope). In kind it is biochemical. How it is done: Pharmacological Test Example 1: Determination of Tau Aggregation Inhibitory Activity
recombinant three-repeat microtubule-binding domain (3R-MBD) of tau protein, sequence (P10636 186-279 isoform P10636-2 limits assumed): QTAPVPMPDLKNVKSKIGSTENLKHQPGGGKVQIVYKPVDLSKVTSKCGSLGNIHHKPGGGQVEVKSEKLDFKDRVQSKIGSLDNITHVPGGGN
A recombinant three-repeat microtubule-binding domain (3R-MBD) of tau protein was expressed in E. coli and was purified and used for the experiment. The purified tau solution was diluted with a 50 mM Tris-HCl buffer (pH 7.6) to a final concentration of 10 μM. The test compounds were prepared using dimethylsulfoxide (DMSO) at 20-fold of their final concentrations and added to the plate so that the DMSO concentration would be 5%. Heparin was added to the plate so that the final concentration would be 10 μM and the plate was left to stand at 37° C. for 16 hours. Thioflavin T was added to the plate so that the concentration would be 10 μM and the fluorescence intensity was measured with a fluorescence plate reader (PerkinElmer, Inc.) (excitation wavelength: 440 nm; emission wavelength: 480 nm).
The final concentration of each compound at the time of measurement was set at 0.1, 0.3, 1, 3, and 10 μM. The sample to which only DMSO was added was used as a negative control and its fluorescence intensity was taken as 0% inhibitory activity.
The samples were placed on a grid and washed with distilled water. A 1 mM phosphotungstic acid aqueous solution was added to the samples. The samples were washed, dried overnight, and observed.

These results are taken from patent publication US9399635B2, “Pyrazole derivative” (GREEN TECH CO., LTD., priority 2011, dated 2016).

In the case of `COc1cc(OCc2ccccn2)ccc1/C=C/c1cc(/C=C/c2ccc3cc[nH]c3c2)[nH]n1` [Example 2, 3-[(1E)-2-(1H-indol-6-yl)ethenyl]-5-[(1E)-2-[2-methoxy-4-(2-pyridylmethoxy)phenyl]ethenyl]-1H-pyrazole], in assay [1], the “amount of insoluble Aβ 1-42 in the brain” value was “decreased in a dose-dependent manner” and the “amount of soluble Aβ 1-42 in the brain” value was “decreased in a dose-dependent manner”. The “amount of the sarcosyl-insoluble tau in the brain” value in assay [2] is “decreased in a dose-dependent manner”. Besides, the “tau aggregate formation observed with an electron microscope” value in assay [3] (0.1 μM and 1 μM, compared with DMSO only (FIG. 1)) is reported as “less tau aggregate formation”. In addition, the IC50 (in general, the concentration needed to halve the response being measured) in assay [3] (3R-MBD tau 10 μM, heparin 10 μM, 37° C. for 16 hours, thioflavin T, read-out: IC50 (μM) Test example 1 (tau aggregation inhibitory activity)) was found to be 0.92 µM.
